Measurements as given in the supplement of paper PMC10307832.

Legend:
Assay in all cases: relative viability (nuclei count vs DMSO), 5 days (fraction); higher = more cells survive
[1] = compound: Cn1cc(-c2cnn3c(N)c(Br)c([C@@H]4CCCNC4)nc23)cn1 + O=C(c1cc(Cc2n[nH]c(=O)c3ccccc23)ccc1F)N1CCN(C(=O)C2CC2)CC1 [Olaparib] (partner 8 µM)
Summary of the method: (§1)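 Lung cancer cell lines in 1536-well plates were dosed by pin tool the day after seeding, either with one drug alone or with a fixed anchor-drug dose plus five library-drug doses (not always all listed) in √10 steps. After 5 days, cells were fixed and their nuclei stained in one step (final 0.05% Triton X-100, 1% formaldehyde, 1 ug/ml Hoechst), then counted on 4× images. Relative viability is the nuclei count in treated wells divided by that in vehicle wells. Values are medians of duplicate plates.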

[2] = compound: Cn1cc(-c2cnn3c(N)c(Br)c([C@@H]4CCCNC4)nc23)cn1 + CC(C)C[C@H](NC(=O)[C@H](Cc1ccccc1)NC(=O)c1cnccn1)B(O)O [Bortezomib] (partner 0.002 µM)
Summary of the method: as §1

[3] = compound: Cn1cc(-c2cnn3c(N)c(Br)c([C@@H]4CCCNC4)nc23)cn1 + CC(=O)Nc1cccc(-n2c(=O)n(C3CC3)c(=O)c3c(Nc4ccc(I)cc4F)n(C)c(=O)c(C)c32)c1 [Trametinib] (partner 0.02 µM)
Summary of the method: as §1

[4] = compound: Cn1cc(-c2cnn3c(N)c(Br)c([C@@H]4CCCNC4)nc23)cn1 + CS(=O)(=O)N1CCN(Cc2cc3nc(-c4cccc5[nH]ncc45)nc(N4CCOCC4)c3s2)CC1 [Pictilisib] (partner 1 µM)
Summary of the method: as §1

Cell Line | relative viability ([1]; first compound 0.05 µM) | relative viability ([1]; first compound 0.1581 µM) | relative viability ([1]; first compound 0.5 µM) | relative viability ([1]; first compound 1.581 µM) | relative viability ([1]; first compound 5 µM) | relative viability ([2]; first compound 0.05 µM) | relative viability ([2]; first compound 0.1581 µM) | relative viability ([2]; first compound 0.5 µM) | relative viability ([2]; first compound 1.581 µM) | relative viability ([2]; first compound 5 µM) | relative viability ([3]; first compound 0.05 µM) | relative viability ([3]; first compound 0.1581 µM) | relative viability ([3]; first compound 0.5 µM) | relative viability ([3]; first compound 1.581 µM) | relative viability ([3]; first compound 5 µM) | relative viability ([4]; first compound 0.05 µM) | relative viability ([4]; first compound 0.1581 µM) | relative viability ([4]; first compound 0.5 µM) | relative viability ([4]; first compound 1.581 µM) | relative viability ([4]; first compound 5 µM)
LCLC-97TM1 | 0.346 | 0.605 | 0.327 | 0.382 | 0.38 | 0.318 | 0.546 | 0.626 | 0.333 | 0.204 | 0.151 | 0.202 | 0.182 | 0.207 | 0.224 | 0.16 | 0.149 | 0.26 | 0.152 | 0.143
LCLC-103H | 0.842 | 0.804 | 0.77 | 0.746 | 0.711 | 1.03 | 1.2 | 1.18 | 0.841 | 1.16 | 0.641 | 0.7 | 0.717 | 0.677 | 0.684 | 0.565 | 0.555 | 0.522 | 0.489 | 0.466
LOU-NH91 | 0.938 | 0.933 | 0.867 | 0.774 | 0.778 | 0.504 | 0.492 | 0.513 | 0.442 | 0.481 | 0.804 | 0.776 | 0.751 | 0.749 | 0.665 | 0.518 | 0.515 | 0.527 | 0.535 | 0.511
LU99A | 0.244 | 0.235 | 0.236 | 0.221 | 0.163 | 1.16 | 1.25 | 1.05 | 1.14 | 0.679 | 0.464 | 0.572 | 0.599 | 0.492 | 0.518 | 0.308 | 0.296 | 0.29 | 0.277 | 0.225
LXF-289 | 1.17 | 1.27 | 1.04 | 1.17 | 1.31 | 1.01 | 1.09 | 0.978 | 0.88 | 0.994 | 0.712 | 0.71 | 0.662 | 0.62 | 0.673 | 0.827 | 0.907 | 0.896 | 0.712 | 0.825
NCI-H23 | 0.283 | 0.286 | 0.229 | 0.227 | 0.174 | 1.08 | 1.28 | 1.01 | 0.473 | 0.239 | 0.364 | 0.401 | 0.304 | 0.355 | 0.178 | 0.576 | 0.506 | 0.395 | 0.313 | 0.198
NCI-H322M | 0.323 | 0.704 | 0.775 | 0.635 | 0.418 | 1.2 | 1.32 | 1.22 | 1.21 | 1.26 | 0.553 | 0.495 | 0.519 | 0.491 | 0.391 | 0.542 | 0.5 | 0.421 | 0.475 | 0.377
NCI-H441 | 0.672 | 0.697 | 0.494 | 0.37 | 0.43 | 1.05 | 0.585 | 0.87 |  | 0.448 | 0.431 | 0.491 | 0.426 | 0.337 | 0.429 | 0.669 | 0.56 | 0.478 | 0.527 | 0.46
NCI-H460 | 0.341 | 0.195 | 0.38 | 0.233 | 0.127 | 0.993 | 1.74 | 0.792 | 0.401 | 0.529 | 0.152 | 0.209 | 0.0974 | 0.0913 | 0.0615 | 0.363 | 0.394 | 0.357 | 0.314 | 0.125
NCI-H520 | 0.353 | 0.367 | 0.302 | 0.326 | 0.236 | 0.702 | 0.609 | 0.385 | 0.471 | 0.344 | 0.685 | 0.642 | 0.591 | 0.699 | 0.542 | 0.266 | 0.318 | 0.283 | 0.208 | 0.267
NCI-H596 | 0.633 | 0.596 | 0.622 | 0.655 | 0.621 | 1.06 | 0.964 | 0.9 | 0.804 | 1.02 | 0.899 | 0.832 | 0.886 | 0.768 | 0.832 | 0.386 | 0.401 | 0.427 | 0.362 | 0.413
NCI-H647 | 0.686 | 0.64 | 0.332 | 0.202 | 0.12 | 1.15 | 1.05 | 0.648 | 0.696 | 0.38 | 0.52 | 0.44 | 0.403 | 0.373 | 0.313 | 0.485 | 0.409 | 0.368 | 0.291 | 0.341
NCI-H650 | 0.427 | 0.557 | 0.523 | 0.551 | 0.397 | 0.717 | 0.748 | 0.69 | 0.773 | 0.603 | 0.913 | 1.01 | 0.957 | 0.901 | 0.82 | 1.06 | 0.882 | 0.804 | 0.749 | 0.602
NCI-H661 | 0.874 | 0.83 | 0.745 | 0.511 | 0.538 | 0.805 | 0.781 | 0.698 | 0.731 | 0.587 | 0.562 | 0.59 | 0.495 | 0.534 | 0.478 | 0.321 | 0.432 | 0.441 | 0.291 | 0.357
NCI-H727 | 0.754 | 0.873 | 0.68 | 0.646 | 0.559 | 0.818 | 0.887 | 0.901 | 0.623 | 0.412 | 0.394 | 0.412 | 0.366 | 0.404 | 0.348 | 0.411 | 0.354 | 0.604 | 0.276 | 0.22
NCI-H838 | 0.79 | 0.911 | 0.797 | 0.611 | 0.648 | 0.918 | 0.845 | 0.83 | 0.701 | 0.551 | 0.501 | 0.521 | 0.496 | 0.505 | 0.471 | 0.365 | 0.501 | 0.416 | 0.264 | 0.488
